Assay results reported in ChEMBL document CHEMBL1154847, “Steroidal saponins from Chlorophytum orchidastrum” (J Nat Prod, 2010).

Columns and labels:
HCT-116 = assay: Cytotoxicity against human HCT116 cells by MTT assay; assay type: functional, cell-based
HT-29 = assay: Cytotoxicity against human HT-29 cells by MTT assay; assay type: functional, cell-based

| SMILES | IC50 (HCT-116) [µM] | IC50 (HT-29) [µM] |
| --- | --- | --- |
| C[C@H]1CC[C@@]2(OC1)O[C@H]1C[C@H]3[C@@H]4CC[C@H]5C[C@@H](O[C@@H]6[C@@H](O)[C@H](OC[C@H]7O[C@@H](O[C@@H]8[C@@H](O)[C@H](O[C@H]9[C@H](O)[C@@H](CO)O[C@@H](O[C@@H]%10[C@H](O)[C@@H](O)[C@H](O)O[C@@H]%10CO)[C@@H]9O[C@@H]9O[C@H](CO)[C@H](O)[C@H](O)[C@H]9O)O[C@H](CO)[C@H]8O)[C@H](O)[C@@H](O[C@@H]8OC[C@@H](O)[C@H](O)[C@H]8O)[C@@H]7O)O[C@H]6CO)[C@H](O)C[C@]5(C)[C@H]4CC[C@]3(C)[C@H]1[C@@H]2C [ORCHIDASTROSIDE F] | 2.12 | 8.87 |
| C[C@H]1CC[C@@]2(OC1)O[C@H]1C[C@H]3[C@@H]4CC[C@H]5C[C@@H](O[C@@H]6[C@@H](O)[C@H](OC[C@H]7O[C@@H](O[C@@H]8[C@@H](O)[C@H](O[C@H]9[C@H](O)[C@@H](CO)O[C@@H](O[C@@H]%10[C@H](O)[C@@H](O[C@@H]%11O[C@@H](C)[C@H](O)[C@@H](O)[C@H]%11O)[C@H](O)O[C@@H]%10CO)[C@@H]9O[C@@H]9OC[C@H](O)[C@H](O)[C@H]9O)OC[C@H]8O)[C@H](O)[C@@H](O[C@@H]8O[C@H](CO[C@@H]9O[C@@H](CO)[C@H](O)[C@H]9O)[C@@H](O)[C@H](O)[C@H]8O)[C@@H]7O)O[C@H]6CO)CC[C@]5(C)[C@H]4CC[C@]3(C)[C@H]1[C@@H]2C [ORCHIDASTROSIDE C] | 1.35 | 3.6 |
| C[C@H]1CC[C@@]2(OC1)O[C@H]1C[C@H]3[C@@H]4CC[C@H]5C[C@@H](O[C@@H]6[C@@H](O)[C@H](OC[C@H]7O[C@@H](O[C@@H]8[C@@H](O)[C@H](O[C@H]9[C@H](O)[C@@H](CO)O[C@@H](O[C@@H]%10[C@H](O)[C@@H](O)[C@H](O)O[C@@H]%10CO)[C@@H]9O[C@@H]9O[C@H](CO)[C@H](O)[C@H](O)[C@H]9O)O[C@H](CO)[C@H]8O)[C@H](O)[C@@H](O[C@@H]8O[C@H](CO[C@@H]9O[C@@H](CO)[C@H](O)[C@H]9O)[C@@H](O)[C@H](O)[C@H]8O)[C@@H]7O)O[C@H]6CO)[C@H](O)C[C@]5(C)[C@H]4CC[C@]3(C)[C@H]1[C@@H]2C [ORCHIDASTROSIDE E] | 7 | 7 |
